For experiment [1], the system named is 11β-HSD1 expression in 3T3-L1 cells. In words: 11β-HSD1 expression in 3T3-L1 cells (western blot). It is filed as cell-based. The conditions noted are these: differentiation-induced 3T3-L1 preadipocytes, β-Actin loading control. On the procedure:
Figure 5 Effects of compound 3 on lipid accumulation and 11β-HSD1 expression in 3T3-L1 cells. Preadipocytes were induced to differentiate in the presence or absence of compound 3, which was then stained with Oil Red O and photographed (40×). 11β-HSD1 expressions were determined by western blot. β-Actin was used as a loading control.
(§1) 3T3-L1 preadipocytes were purchased from Shanghai Institute of Cell Biology, Chinese Academy of Sciences. Both of them were cultured in DMEM medium (Gibco, USA) containing 10% FBS, penicillin (100 U/mL), streptomycin […] in 5% CO2 at 37 °C. 3T3-L1 preadipocytes were induced to differentiate as previously described. In short, differentiation was induced by adding 0.5 mmol/L 3-isobutyl-1-methyxanthine (Sigma), 10 μg/mL insulin (Sigma), and […] dexamethasone (Sigma) to the medium. After 48 h incubation (d2), the medium was replaced with DMEM containing 10 μg/mL insulin and 50 μM compound 3. On d4, the medium was replaced with DMEM containing compound 3, and then changed back to the same medium every on d6.
Cells were treated and then lysed in a radio immune-precipitation assay buffer. Protein concentrations were determined using a BCA protein assay kit (Byontime, Beijing, China) and equalized before loading. […]
Background: A western blot detects proteins with antibodies after separation by electrophoresis.

Experiment [2] deals with T1, recombinant human 11β-HSD1 (Homo sapiens, UniProt P28845).
T1 construct: The gene encoding 11β-HSD1 (Genebank: NC_018912.2) was cloned into the pET-28a vector (Novagen); hexa-histidine (C, cleaved yes); made in house; host or cells: E. coli BL21(DE3)
T1 sequence (P28845 whole entry): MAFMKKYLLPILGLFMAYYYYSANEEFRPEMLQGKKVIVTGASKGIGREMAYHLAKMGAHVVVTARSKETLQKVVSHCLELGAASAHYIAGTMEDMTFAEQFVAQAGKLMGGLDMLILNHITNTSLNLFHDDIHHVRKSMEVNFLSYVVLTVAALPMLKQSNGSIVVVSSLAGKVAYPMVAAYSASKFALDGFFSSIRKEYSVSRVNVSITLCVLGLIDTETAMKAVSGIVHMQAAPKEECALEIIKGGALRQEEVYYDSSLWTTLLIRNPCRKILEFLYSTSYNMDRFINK
In words: Binding affinity assay using microscale thermophoresis (MST). Conditions: labelled 11β-HSD1 50 nM, 22 °C, means ± SD for three experiments; for Kd: read-out: Kd (dissociation constant with 11β-HSD1). The source says:
Measuring the thermophoretic behaviour of a protein in the presence of differing ligand concentrations by MST allows quantitative analysis of molecular interactions in solution. The MST technique has previously been used to investigate protein-protein, small organic molecule-protein and antibody-protein interactions.
(§2) The gene encoding 11β-HSD1 (Genebank: NC_018912.2) was cloned into the pET-28a vector (Novagen). After the recombinant plasmids were verified by sequencing, the plasmid was transformed into E. coli BL21(DE3) (Invitrogen) which were grown in LB medium at 37 °C to an OD600 (0.8–1.0) and induced by 0.4 mM isopropyl -D-thiogalactopyranoside (IPTG) at 20 °C for 16 hours. Bacterial cells were lysed by ultrasonification on ice in a buffer containing 20 mM Tris, pH 8.5, 200 mM NaCl, 5 mM mercaptoethanol, 0.1% TritonX-100, and 5% glycerol. Soluble C-terminally hexa-histidine tagged 11β-HSD1 was bound to Ni-agarose affinity resin (Qiagen), washed with a buffer containing 20 mM Tris, pH 8.5, 200 mM NaCl, and 10 mM imidazole, and eluted with a buffer containing 20 mM Tris, pH 8.8, 250 mM NaCl, and 150 mM imidazole. Thrombin (Roche) was added at one unit per 4 mg protein to the elute, which was then dialyzed against 20 mM Tris pH 8.5 and 100 mM NaCl at room temperature for overnight digestion. After thrombin digestion to remove the hexahistidine tag, contaminant proteins were removed by loading the elute onto a second cobalt affinity column equilibrated in the dialyzing buffer and collecting the flow-through. The protein was further purified with anion exchange chromatography, using a linear gradient of 10 mM to 1 M NaCl concentration and size exclusion chromatography at 20 mM Tris pH 8.5 and 200 mM NaCl[22][23].
The ability of the purified 11β-HSD1 to bind with potential ligands was analyzed using MST. The protein was labeled with the Monolith NT™ Protein Labeling Kit RED (Cat#L001) according to the supplied labeling protocol. Labelled 11β-HSD1 was kept constant at 50 nM, while all samples tested were diluted in a 20 mM HEPES (pH 7.5) and 0.05 (v/v)% Tween-20. Compounds were diluted in 12 dilution steps covering the range of appropriate concentrations. After 10 min incubation at room temperature, samples were loaded into Monolith^TM standard-treated capillaries and the thermophoresis was measured at 22 °C after 30 min incubation on a Monolith NT.115 instrument (NanoTemper Technologies, München, Germany). Laser power was set to 40% using 30 seconds on-time and the LED power was set to 100%. The dissociation constrant Kd values were fitted by using the NTAnalysis software (NanoTemper Technologies, München, Germany).
Background: In MST a laser heats a spot of the sample, and binding alters the fluorescence response.

The target of experiment [3] is T1, recombinant human 11β-HSD1. Put plainly: 11β-HSD1 enzyme inhibition assay (cortisone to cortisol, HPLC-MS/MS). It is filed as biochemical. Conditions: cortisone 50 μM, NADPH 1 mM, 37 °C, 30 min, read-out: IC50 (inhibitory activities against 11β-HSD1). On the procedure:
To explore the 11β-HSD1 inhibitory activities of compounds 1–8 in vitro, recombinant human 11β-HSD1 protein was incubated with various concentrations of compounds and the enzymatic activity (cortisone to cortisol) was tested using HPLC-MS/MS (Fig. 3).
as §2
The inhibitory effects of 1–8 on 11β-HSD1 were measured using recombinant human 11β-HSD1 protein through HPLC-MS/MS method. Briefly, 2.5 μL recombinant 11β-HSD1 protein (0.512 mg protein/ml) was added to 100 μL buffer (100 mM KCl, 20 mM NaCl, 20 mM Hepes, pH 7.5) containing NADPH (1 mM) and cortisone (50 μM) with or without various concentrations of compounds. The reactants were incubated at 37 °C for 30 min. After extraction with dichloromethane, evaporation and resolvation with 200 μL methanol, cortisone and cortisol were measured by HPLC-MS/MS and multi-reactions monitoring (MRM) technology. Detection was performed using a Shimadzu LC-20AD HPLC system equipped with an SHIMADZU VP-ODS 150 L × 4.6 mm column connected to a API 4000 LC/MS/MS system. Samples were analyzed after injection and equilibrated with 45% solution A (0.1% formic acid in water) and 55% solution B (Methanol) under isocratic elution with the flow rate of 0.8 mL/min. The HPLC eluent were tested by HPLC-MS/MS using collision energy 33 eV (cortisol) and 30 eV […] in positive ion mode. Analyst quantitation optimization wizard was used to optimize the collision energies and other electric lens settings for MRM detections. The inhibition rates were calculated using the concentration ratios of cortisone and cortisol in tubes with or without various compounds.

The test system of the next experiment is 3T3-L1 preadipocytes. Put plainly: Lipid accumulation in differentiation-induced 3T3-L1 preadipocytes (Oil Red O staining). It is filed as cell-based. Conditions: 3T3-L1 preadipocytes induced to differentiate, 50 μM compound, 6 days. On the procedure: It was reported that 11β-HSD1 is highly expressed in normal liver[18] and stimulates pre-adipocyte differentiation. As a result, many 11β-HSD1 inhibitors were investigated to prevent adipogenesis. To further examine the 11β-HSD1 inhibitory effects of compound 3, we examined the anti-adipogenic effect of compound 3 during the differentiation of 3T3-L1 cells.
as §1
Preadipocytes 3T3-L1 were induced to differentiate with or without compounds 3 for 6 days, and then washed twice with PBS, fixed in 3.7% formaldehyde for 1 h and stained with Oil Red O for another 1 h at room temperature. Cells were then washed several times with PBS, and photographed by a light microscope (Olympus, Japan).

Each structure is given as a SMILES string. Entries after “also recorded” stand apart in the source; their conditions may differ.

As for `CN1C(=O)c2ccccc2NC(=O)[C@@H](Cc2ccccc2)N(C)C(=O)c2ccccc2NC(=O)[C@H]1Cc1ccccc1` [Compound 3, Penicopeptide A], the 11β-HSD1 expression result in experiment [1] is “inhibition of 11β-HSD1 expression”. Also, the equilibrium dissociation constant (Kd) (as a rule, the equilibrium constant for the complex coming apart) in experiment [2] came out at 82.1 ± 5.01 µM. For the same compound, the IC50 – broadly, the concentration at which inhibition is half-maximal – in experiment [3] was determined as 9.07 ± 0.61 µM. Further, the lipid droplet accumulation result in the experiment on 3T3-L1 preadipocytes is “decreased the lipid droplet accumulation”.

As for `CN1C(=O)c2ccccc2NC(=O)/C1=C/c1ccccc1` [Compound 4, 3-benzylidene-3,4-dihydro-4-methyl-lH-l,4-benzodiazepine-2,5-dione], the “Kd (dissociation constant with 11β-HSD1)” value in experiment [2] was “either no binding or no statistically significant binding was detected and n.b”. For the same compound, the half-inhibitory concentration (IC50) in experiment [3] is over 200 µM.

As to `CC(=O)c1cc(C)c2c(c1O)C[C@H](C)[C@@]1(C[C@@H](O)C[C@@H](C)O1)O2` [Compound 1, Penicophenone A], in experiment [2], the “Kd (dissociation constant with 11β-HSD1)” value is reported as “either no binding or no statistically significant binding was detected; also recorded: n.b.b”. The IC50 in experiment [3] was over 200 µM.

Take `CC(=O)c1cc(C)c(O)c(C[C@]23Cc4c(O)c(C(C)=O)cc(C)c4O[C@@]2(O)[C@@H](C)OC3=O)c1O` [Compound 8, penilactones A]: the “Kd (dissociation constant with 11β-HSD1)” value in experiment [2] is “either no binding or no statistically significant binding was detected and n.b”. In addition, the IC50 in experiment [3] was over 200 µM.

For the compound `CN1C(=O)c2ccccc2NC(=O)C12OC2c1cccc(O)c1` (single isomer, unassigned; (+)) [Compound 5, (+)-cyclopenol], the Kd in experiment [2] is 421 ± 12.1 µM. Moreover, in experiment [3], the IC50 turned out to be 45.5 ± 7.82 µM.

Turning to `CC(C)=CCC[C@]1(C)[C@@H](O)CC[C@@]2(C)[C@H]1CC[C@H]1Cc3c([nH]c4ccccc34)[C@@]12C` [Compound 7, emindole SB], the “Kd (dissociation constant with 11β-HSD1)” value in experiment [2] was “either no binding or no statistically significant binding was detected and n.b”. The half-maximal inhibitory concentration (IC50) in experiment [3] was over 200 µM.

Take `CN1C(=O)c2ccccc2NC(=O)C12OC2c1ccccc1` (centres unmarked) [Compound 6, cyclopenin]: the dissociation constant (Kd) in experiment [2] was 513 ± 10.6 µM.

As to `COc1cc(Cc2c(O)c(C)cc(C(C)=O)c2O)c(OC)cc1O` [Compound 2, Penicophenone B], the “Kd (dissociation constant with 11β-HSD1)” value in experiment [2] is “either no binding or no statistically significant binding was detected and n.b”. Moreover, the IC50 in experiment [3] was over 200 µM.

The values are drawn from article PMC4872216, “Novel small molecule 11β-HSD1 inhibitor from the endophytic fungus Penicillium commune” (Scientific Reports, 2016).
